The subject of series [1] is VSV-GFP. The series is described as follows: microbe, parasite or virus in culture. Format: cell-based, vesicular stomatitis virus.
In the next series the test system is HIV NL4-3. Format: cell-based, human-immunodeficiency virus.
Series [2] has as its system VSV-GFP. In kind it is cell-based, vesicular stomatitis virus.
A further series relates to Ebola Zaire-GFP (EBOV). Format: cell-based, Ebola virus.
For series [3], the system named is Nipah virus (Bangladesh strain). In kind it is cell-based.
In series [4] the test system is Russian Spring-Summer Encephalitis Virus (RSSEV). In kind it is cell-based.
The test system of series [5] is Rift Valley Fever Virus ZH501 (RVFV). Format: cell-based.
Series [6] has as its system RVFV (MP12 vaccine strain). In kind it is cell-based, Rift Valley Fever Virus.
Another series relates to adenovirus-GFP. In kind it is cell-based.
The subject of another series is VSVΔG-Luc/G pseudovirus. In kind it is cell-based, vesicular stomatitis virus.
The test system of a further series is VSV. Format: cell-based, vesicular stomatitis virus.
Another series relates to VSV-G/BlaM. In kind it is cell-based, vesicular stomatitis virus.
In series [7] the test system is replication-competent VSV. Format: cell-based, vesicular stomatitis virus.
The next series has as its system HIV-IIIB pseudovirus. In kind it is cell-based, human-immunodeficiency virus.
For another series, the system named is pseudotyped HIV-IIIB. Format: cell-based, human-immunodeficiency virus.
The subject of series [8] is HIV NL4-3 encoding Vpr-BlaM (NL4-3/BlaM). Format: cell-based, human-immunodeficiency virus.
In another series the test system is NL4-3-GFP. In kind it is cell-based, human-immunodeficiency virus.
Series [9] deals with Nipah fusion (F) and attachment (G) proteins. In kind it is cell-based, Nipah virus.
The test system of another series is HIV NL4-R3A. As to the kind of experiment: HIV infection in DKO-hu humanized mice. In kind it is in vivo, HIV-1.

“And” between values parts separate entries of the source, which are not always exact repeats. Identical values can stand only once. Like-named read-outs stand apart in the source and are kept apart here.

As for `CC(C)CC[C@@H](O)[C@@H](C)[C@H]1CC[C@H]2[C@@H]3CC=C4C[C@@H](O)CC[C@]4(C)[C@H]3CC[C@]12C` [22R-HC, 22-(R)-hydroxycholesterol, reference compound], the “antiviral effect on VSV-GFP” value in the series with VSV-GFP [1] is “did not confer antiviral effect”.
As for `CC(C)CC[C@H](O)[C@@H](C)[C@H]1CC[C@H]2[C@@H]3CC=C4C[C@@H](O)CC[C@]4(C)[C@H]3CC[C@]12C` [22S-HC, 22-(S)-hydroxycholesterol, reference compound], the “effect on HIV p24 expression” value in the series on HIV NL4-3 was “no effect”.
In the case of `C[C@H](CCCC(C)(C)O)[C@H]1CC[C@H]2[C@@H]3CC=C4C[C@@H](O)CC[C@]4(C)[C@H]3CC[C@]12C` [25HC, 25-hydroxycholesterol], the IC50 (usually the point on the concentration scale where inhibition reaches its midpoint) in the series on VSV-GFP [1] (Vesicular stomatitis virus, HEK-293T, read-out: IC50 of inhibition of VSV-GFP expression by FACs) is roughly 1 µM. Also, the VSV replication entry in the series on VSV-GFP [2] was “reduced VSV replication”. For the same compound, the “inhibition of p24 expression compared to vehicle” value with HIV NL4-3 is roughly 80%. Further, the “replication of live Ebola (EBOV-Zaire)” value in the series on Ebola Zaire-GFP (EBOV) is given as “inhibited replication”. Also, in series [3], the “replication of Nipah, dose dependence” value was “dose-dependent manner” and the “replication of live Nipah (Bangladesh)” value is reported as “inhibited replication”. The “replication of live RSSEV” value in series [4] is “inhibited replication”. The “replication of live RVFV” value in [5] was “inhibited replication”. For the same compound, the “replication of RVFV (MP12), dose dependence” value in [6] was “dose-dependent manner”. Also, the “adenovirus coexpressing GFP measured by FACS” value in the series with adenovirus-GFP was “not affected”. Moreover, in the series on VSVΔG-Luc/G pseudovirus, the “VSV-G mediated infection, addition concurrently or 1 hpi” value is on record as “not significantly inhibited” and the “inhibition of VSVΔG-Luc expression, pre-treatment” value is recorded as “greater inhibition”. In addition, the “VSV binding (VSV genomic RNA)” value in the series with VSV is recorded as “did not inhibit binding significantly”. For the same compound, in the series on VSV-G/BlaM, the VSV-G/BlaM entry entry is “dose-dependent inhibition”. For the same compound, the “reduction in the amount of VSV produced (viral genome copies by qRT-PCR)” value in [7] is on record as greater than 80%. In series [7] (2.5 uM), the “infectious titer of viruses from treated cells normalized for viral gRNA” value is reported as “equivalent plaque forming units”. Besides, the “inhibition of luciferase expression from single round infection” value in the series with HIV-IIIB pseudovirus is greater than 50%. Moreover, in the series with pseudotyped HIV-IIIB, the “inhibition of lateRT expression” value is > 99% and ~70%. For the same compound, in series [8], the “decrease in NL4-3/Bla blue-green ratio at endpoint” value is given as roughly 60% and the “reduction in cells expressing cleaved CCF2-AM by FACS” value is on record as greater than 85%. Further, in the series on NL4-3-GFP, the “GFP expression from NL4-3-GFP (HIV transcription and translation)” value is “did not suppress GFP expression”; the “HIV p24 expression in supernatants of transfected cells (budding)” value is recorded as “did not affect”. The syncytia formation entry in series [9] is recorded as “less syncytia formation”. Besides, the “reduction of fusion (nuclei per syncytia) relative to ethanol control” value in series [9] (2 uM) is roughly 50%. In addition, the “reduction of fusion (nuclei per syncytia) relative to ethanol control” value in series [9] (10 uM) was roughly 60%. Also, the “reduction of HIV RNA (copies/mL) in serum vs vehicle-treated mice” value with HIV NL4-R3A (50 mg/kg i.p. 12 h prior to infection and every day, 7 dpi, P<0.0001) is listed as greater than 80%. For the same compound, the “HIV p24 in CD4 T-cells from spleens” value with HIV NL4-R3A (50 mg/kg i.p. daily, 14 dpi) is on record as “significantly lower”. The “HIV-mediated CD4 T-cell depletion in peripheral blood leukocytes” value with HIV NL4-R3A (50 mg/kg i.p. daily, CD3+ T-cell population, P<0.05) is reported as “prevented HIV-mediated CD4 T-cell depletion”. For the same compound, the “HIV-mediated CD4 T-cell depletion in the spleen” value with HIV NL4-R3A (50 mg/kg i.p. daily, P=0.06) was “less significant”. Besides, in the series with HEK293T, the “LDH in supernatants of cells” value is “did not increase LDH” and the LDH level entry is recorded as “increased”.
As for `c1cc(CN2CCCNCCNCCCNCC2)ccc1CN1CCCNCCNCCCNCC1` [AMD3100, reference compound], the NL4-3/Bla entry entry in [8] is “abrogated”.
With `Cc1cn([C@H]2C[C@H](N=[N+]=[N-])[C@@H](CO)O2)c(=O)[nH]c1=O` [AZT, reference compound], the “inhibition of luciferase expression from single round infection” value in the series on HIV-IIIB pseudovirus is on record as roughly 70%.
Take `CN(C)CCCN1c2ccccc2Sc2ccc(Cl)cc21` [CPZ, reference compound]: the “VSV binding (VSV genomic RNA)” value in the series on VSV is on record as “did not inhibit binding significantly”.
Consider `Cc1c(O)cccc1C(=O)N[C@@H](CSc1ccccc1)[C@H](O)CN1C[C@H]2CCCC[C@H]2C[C@H]1C(=O)NC(C)(C)C` [Nelfinavir, reference compound], for which the “inhibition of p24 expression in supernatants” value in the series on NL4-3-GFP is given as greater than 50%.

Values taken from patent US11020409B2, “Broad antiviral therapy with membrane modifying oxysterols” (priority 2012, dated 2021).
